Reference: US12570662B2, “Substituted pyrrolo[1,2-b]pyridazines as bifunctional degraders of interleukin-1 receptor-associated kinases” (Nurix Therapeutics, Inc., priority 2021, dated 2026)

Target: T1, IRAK4 (Homo sapiens, UniProt Q9NWZ3)
T1 construct: C-terminal HiBiT-tagged Jurkat cells (polyclonal cell line or clone 8D5); endogenous in cells; host or cells: Jurkat cells (polyclonal cell line or clone 8D5), HiBiT-tagged
T1 sequence (Q9NWZ3 1-460): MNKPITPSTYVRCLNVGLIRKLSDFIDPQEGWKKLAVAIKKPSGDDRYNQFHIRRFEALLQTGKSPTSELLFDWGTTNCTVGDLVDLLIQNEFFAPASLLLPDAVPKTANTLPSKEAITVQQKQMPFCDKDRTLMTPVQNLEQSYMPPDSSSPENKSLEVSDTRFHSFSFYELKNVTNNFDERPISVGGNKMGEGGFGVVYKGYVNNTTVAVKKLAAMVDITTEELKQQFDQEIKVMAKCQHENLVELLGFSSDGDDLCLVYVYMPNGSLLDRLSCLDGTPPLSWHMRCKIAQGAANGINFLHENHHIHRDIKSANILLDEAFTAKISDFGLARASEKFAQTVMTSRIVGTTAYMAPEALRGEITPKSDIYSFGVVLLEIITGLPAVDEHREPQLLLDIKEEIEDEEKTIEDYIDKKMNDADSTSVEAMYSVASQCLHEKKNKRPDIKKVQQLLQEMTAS
Assay: IRAK4 Degradation HiBit Assay
Type: cell-based
Conditions: C-terminal HiBiT-tagged Jurkat cells, 4 hrs incubation; for DC50: % IRAK4 remaining, four-parameter fit (IC50 used as DC50); for Dmax: from fit of % IRAK4 remaining, read-out: Dmax
Summary of the method: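 Jurkat cells carrying C-terminal HiBiT-tagged IRAK4 (polyclonal or clone 8D5) exposed to compound, 10 μM–0.1 nM final over 11 points, for 4 h at 32 °C. Remaining IRAK4 measured by lytic HiBiT/LgBiT luminescence relative to DMSO. DC50 and Dmax taken from four-parameter variable-slope fits.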

| DC50 | Dmax | SMILES |
| --- | --- | --- |
| 187 nM | 103% | CCNc1cc(-c2ccc3cc(C#N)cnn23)ncc1-c1nnc(N2CCN(CC3CCN(c4ccc(C5CCC(=O)NC5=O)cn4)CC3)CC2)s1 (racemic) [Example 68, rac-7-[5-(5-{4-[(1-{5-[(3R)-2,6-dioxopiperidin-3-yl]pyridin-2-yl}piperidin-4-yl)methyl]piperazin-1-yl}-1,3,4-thiadiazol-2-yl)-4-(ethylamino)pyridin-2-yl]pyrrolo[1,2-b]pyridazine-3-carbonitrile] |
| 1000 nM | 84% | CCNc1cc(-c2ccc3cc(C#N)cnn23)ncc1-c1nnc(N2CCN(CC3CCN(c4ccc(C5CCC(=O)NC5=O)cn4)CC3)CC2)o1 (racemic) [Example 69, rac-7-[5-(5-{4-[(1-{5-[(3R)-2,6-dioxopiperidin-3-yl]pyridin-2-yl}piperidin-4-yl)methyl]piperazin-1-yl}-1,3,4-oxadiazol-2-yl)-4-(ethylamino)pyridin-2-yl]pyrrolo[1,2-b]pyridazine-3-carbonitrile] |
| 42 nM | 112% | CCNc1cc(-c2ccc3cc(C#N)cnn23)ncc1-c1nnc(N2CCN(CC3CCN(c4ccc(C5CCC(=O)NC5=O)cc4)CC3)CC2)s1 (racemic) [Example 70, rac-7-[5-(5-{4-[(1-{4-[(3R)-2,6-dioxopiperidin-3-yl]phenyl}piperidin-4-yl)methyl]piperazin-1-yl}-1,3,4-thiadiazol-2-yl)-4-(ethylamino)pyridin-2-yl]pyrrolo[1,2-b]pyridazine-3-carbonitrile] |
| 23 nM | 71% | N#Cc1cnn2c(-c3cc(NC4CCOCC4)c(-c4nnc(N5CCN(C6CC7(CCN(c8ccc(C9CCC(=O)NC9=O)cn8)CC7)C6)CC5)s4)cn3)ccc2c1 (racemic) [Example 74, rac-7-(5-{5-[4-(7-{5-[(3R)-2,6-dioxopiperidin-3-yl]pyridin-2-yl}-7-azaspiro[3.5]nonan-2-yl)piperazin-1-yl]-1,3,4-thiadiazol-2-yl}-4-[(oxan-4-yl)amino]pyridin-2-yl)pyrrolo[1,2-b]pyridazine-3-carbonitrile] |
| 9 nM | 111% | C[C@H](C#N)Nc1cc(-c2ccc3cc(C#N)cnn23)ncc1-c1nnc(N2CCN(CC3CCN(c4ccc(C5CCC(=O)NC5=O)cn4)CC3)CC2)s1 (mixture of isomers) [Example 75, 7-(4-{[(1R)-1-cyanoethyl]amino}-5-(5-{4-[(1-{5-[(3RS)-2,6-dioxopiperidin-3-yl]pyridin-2-yl}piperidin-4-yl)methyl]piperazin-1-yl}-1,3,4-thiadiazol-2-yl)pyridin-2-yl)pyrrolo[1,2-b]pyridazine-3-carbonitrile] |
| 23 nM | 111% | CC1(Nc2cc(-c3ccc4cc(C#N)cnn34)ncc2-c2nnc(N3CCN(CC4CCN(c5ccc(C6CCC(=O)NC6=O)cc5)CC4)CC3)s2)COC1 (racemic) [Example 76, rac-7-[5-(5-{4-[(1-{4-[(3R)-2,6-dioxopiperidin-3-yl]phenyl}piperidin-4-yl)methyl]piperazin-1-yl}-1,3,4-thiadiazol-2-yl)-4-[(3-methyloxetan-3-yl)amino]pyridin-2-yl]pyrrolo[1,2-b]pyridazine-3-carbonitrile] |
| 53 nM | 90% | N#Cc1cnn2c(-c3cc(NC4CC4)c(-c4nnc(N5CCN(CC6CCN(c7ccc(C8CCC(=O)NC8=O)cc7)CC6)CC5)s4)cn3)ccc2c1 (racemic) [Example 77, rac-7-[4-(cyclopropylamino)-5-(5-{4-[(1-{4-[(3R)-2,6-dioxopiperidin-3-yl]phenyl}piperidin-4-yl)methyl]piperazin-1-yl}-1,3,4-thiadiazol-2-yl)pyridin-2-yl]pyrrolo[1,2-b]pyridazine-3-carbonitrile] |
| 21 nM | 115% | CNc1cc(-c2ccc3cc(C#N)cnn23)ncc1-c1nnc(N2CCN(CC3CCN(c4ccc(C5CCC(=O)NC5=O)cc4)CC3)CC2)s1 (racemic) [Example 79, rac-7-[5-(5-{4-[(1-{4-[(3R)-2,6-dioxopiperidin-3-yl]phenyl}piperidin-4-yl)methyl]piperazin-1-yl}-1,3,4-thiadiazol-2-yl)-4-(methylamino)pyridin-2-yl]pyrrolo[1,2-b]pyridazine-3-carbonitrile] |
| 10 nM | 116% | CNc1cc(-c2ccc3cc(C#N)cnn23)ncc1-c1nnc(C2CCN(CC3CCN(c4ccc(C5CCC(=O)NC5=O)cn4)CC3)CC2)s1 (racemic) [Example 81, rac-7-[5-(5-{1-[(1-{5-[(3R)-2,6-dioxopiperidin-3-yl]pyridin-2-yl}piperidin-4-yl)methyl]piperidin-4-yl}-1,3,4-thiadiazol-2-yl)-4-(methylamino)pyridin-2-yl]pyrrolo[1,2-b]pyridazine-3-carbonitrile] |
| 8 nM | 114% | CN(CC1CCN(c2ccc([C@@H]3CCC(=O)NC3=O)cn2)CC1)[C@H]1CC[C@H](c2nnc(-c3cnc(-c4ccc5cc(C#N)cnn45)cc3NC3CCOCC3)s2)CC1 (racemic) [Example 82, 7-{4-[(oxan-4-yl)amino]-5-{5-[(1r,4r)-4-{[(1-{5-[(3RS)-2,6-dioxopiperidin-3-yl]pyridin-2-yl}piperidin-4-yl)methyl](methyl)amino}cyclohexyl]-1,3,4-thiadiazol-2-yl}pyridin-2-yl}pyrrolo[1,2-b]pyridazine-3-carbonitrile] |

| SMILES | DC50 | Dmax |
| --- | --- | --- |
| CC(C)Nc1cc(-c2ccc3cc(C#N)cnn23)ncc1-c1nnc(N2CC3CCC(C2)N3CC2CCN(c3ccc([C@H]4CCC(=O)NC4=O)cc3)CC2)s1 (racemic) [Example 72, rac-7-[5-(5-{8-[(1-{4-[(3R)-2,6-dioxopiperidin-3-yl]phenyl}piperidin-4-yl)methyl]-3,8-diazabicyclo[3.2.1]octan-3-yl}-1,3,4-thiadiazol-2-yl)-4-[(propan-2-yl)amino]pyridin-2-yl]pyrrolo[1,2-b]pyridazine-3-carbonitrile] | 45 nM | 60% |
| N#Cc1cnn2c(-c3cc(NC4CCOCC4)c(-c4nnc(N5CC6CCC(C5)N6CC5CCN(c6ccc([C@H]7CCC(=O)NC7=O)cc6)CC5)s4)cn3)ccc2c1 (racemic) [Example 85, rac-7-[5-(5-{8-[(1-{4-[(3R)-2,6-dioxopiperidin-3-yl]phenyl}piperidin-4-yl)methyl]-3,8-diazabicyclo[3.2.1]octan-3-yl}-1,3,4-thiadiazol-2-yl)-4-[(oxan-4-yl)amino]pyridin-2-yl]pyrrolo[1,2-b]pyridazine-3-carbonitrile] | 25 nM | 73% |
| N#Cc1cnn2c(-c3cc(N[C@H]4CCOC4)c(-c4nnc(N5CC6CCC(C5)N6CC5CCN(c6ccc(C7CCC(=O)NC7=O)cn6)CC5)s4)cn3)ccc2c1 (mixture of isomers) [Example 87, 7-[5-(5-{8-[(1-{5-[(3RS)-2,6-dioxopiperidin-3-yl]pyridin-2-yl}piperidin-4-yl)methyl]-3,8-diazabicyclo[3.2.1]octan-3-yl}-1,3,4-thiadiazol-2-yl)-4-{[(3S)-oxolan-3-yl]amino}pyridin-2-yl]pyrrolo[1,2-b]pyridazine-3-carbonitrile] | 47 nM | 61% |
